Measured values taken from patent publication US20240226072A1 (Stichting Het Nederlands Kanker Instituut, priority 2022, published 2024).
Like-named read-outs stand apart in the source and are kept apart here. Blank lines part the entries; values can stand above or below the compound they belong to.

Key:
[1] = Preclinical population PK model (NONMEM) of oral cabazitaxel and ritonavir in Cyp3aXAV mice
Description: Population PK modeling was performed using nonlinear mixed-effects modeling in NONMEM (version 7.5.0, ICON Development Solutions, Ellicott City, MD, USA) with a gfortran compiler and Perl-speaks-NONMEM (version 5.3.0) (Beal SL SL. NONMEM user guides. Ellicott City, Maryland, USA. 1989; Lindbom et al. Comput Methods Programs Biomed. 2005). All models were fit with first order conditional estimation method with η-ε interaction (FOCE-I). Pirana (version 2.9.9) was used as a modeling interface. R (version 4.0.4) was used for data management, visual model evaluation, and analysis and visualization of simulation data.
Due to its predictive value for human hepatic CYP3A metabolism, the PK data obtained in the Cyp3aXAV mouse model was used in the current study (Damoiseaux et al. Pharmaceuticals. 2022). […] Depending on the study, each experiment was terminated by cardiac puncture at either 2 hours or 24 hours after administration.
In the development of the compartmental PK models, inclusion of model elements, such as the number of compartments, inter-individual variability (IIV), covariate effects, and residual random effects were guided by differences in objective function value (OFV), plausibility of parameter estimates, observation of trends in goodness of fit plots, and differences in estimation precision.
This well-stirred liver model assumes the liver to have a fixed volume and blood flow and hepatic clearance (CL) is calculated as a function of hepatic blood flow (Q1) and intrinsic clearance (CLi) following Eq.1.
In the variability model, it was assumed that IIV is log-normally distributed. With Eq. 5 defining the expression for the individual parameter estimate θi.
Where θpop represents population mean parameter estimate and ηi represents its individual deviation, which is distributed following N (0, ω^2). For both PK models, in was assumed that the residual error has both an additive and proportional component. The additive component of the error model was included only for observations which were designated as <LLOQ. Time points for which no quantity of either drug could be detected were discarded. For determination of the LLOQ a signal-to-noise ratio (S/N) of 10 is applied. Thus, a fixed additive error was set for observations <LLOQ which was set to 1/10th of the LLOQ for the respective compound. Consequently, individual model predictions are related to observations following Eq. 6.
Where Cobs,ij represents the observation for the ith subject and the jth measurement. With Cpred,ij the respective prediction. Both the proportional error ep, and additive error εa,ij were assumed to be distributed following N (0, σ^2). LLOQij was included as a data record, which was set to one for observations that were below the limit of quantification.
Evaluation of candidate models was based on plausibility and precision of parameter estimates, observation of trends in goodness-of-fit plots, η and ε-shrinkage, and decreases in OFV for which a change in OFV of 3.84, corresponding to α=0.05, was considered to be significant for hierarchical models. All models were required to achieve successful minimization. The predictive performance of the model was evaluated by simulating 500 datasets using the candidate models from which the 5th, 50th, and 95th percentiles were calculated, along with their 95% confidence intervals, which were compared with the 5th, 50th, and 95th of the observations using a visual predictive check (VPC). The uncertainty in the final parameter estimates was evaluated using a sampling importance-resampling (SIR) algorithm (Dosne et al. J Pharmacokinet Pharmacodyn. 2017).

[2] = Cyp3a−/− compared to wild-type mice; earlier study; cited from earlier work
[3] = Carboxylesterase pharmacokinetic experiment: oral cabazitaxel 10 mg/kg, 2 h, in wild-type, Ces1cde−/− and Ces1−/− mice; type: in vivo; conditions: for lower plasma AUC0-2h / reduction of Cmax: oral cabazitaxel 10 mg/kg; for Kp at 2 h / Cmax / Tmax / AUC(0-t): male, FVB, mouse, po, 10 mg/kg; for Cmax / Tmax / AUC(0-t): plasma; for AUC(0-t): read-out: AUC0-120min
Description: The experiment was terminated by cardiac puncture at 2 hours. The organ collection and sample pretreatment were as described above.
Differences were considered statistically significant when P<0.05. All data are presented as geometric mean±SD.
This experiment was performed in the absence of ritonavir.

in vivo = assay: in vivo
Description: Male wild-type, Oatp1a/1b^−/−, transgenic OATP1B1 and OATP1B3 mice in an Oatp1a/1b^−/− background, Oatp1a/1b/2b1b^−/−, Ces1b^−/− and Ces1cdeb^−/− mice were used.
The Accord (20 mg/mL) formulation contains polysorbate 80, citric acid and 395 mg/mL anhydrous ethanol. […] The stock solution was further diluted 5-fold with water to obtain a 2.5 mg/mL dosing solution for oral administration. The vehicle solution only consisted of polysorbate 80, ethanol and water (1:1:8, v/v/v). All dosing solutions were prepared freshly on the day of the experiment.
The termination time point was at 2 hours and 15 minutes. […] The termination, organ collection and sample pretreatment were as described above.
Non-compartmental analysis was performed to estimate the pharmacokinetic parameters by using the software package PK solutions 2.0.2 (SUMMIT, Research Service). The linear trapezoidal rule without extrapolating to infinity was used to calculate the area under the curve (AUC) of the plasma-concentration time curve for all the compounds. The peak plasma concentration (Cmax) and the time to reach peak plasma concentration (Tmax) were obtained directly from the individual raw data. […] GraphPad Prism 9 (GraphPad Software Inc., La Jolla, CA) was used for the statistical analysis and the preparation of the graphs. […]

[4] = cabazitaxel PK model, allometrically scaled to a 70 kg human
[5] = inter-individual variability, population PK model, Cyp3aXAV mice
[6] = Ces1cde−/− compared to wild-type mice
[7] = Ces1−/− compared to wild-type mice
[8] = Ces1cde−/− mice, oral 10 mg/kg cabazitaxel
[9] = Ces1−/− mice, oral 10 mg/kg cabazitaxel
[10] = wild-type mice, oral 10 mg/kg cabazitaxel
[11] = wild-type mice, oral 10 mg/kg cabazitaxel, 2 h

- Ka, 10 mg/kg, First-order absorption rate constant when co-administered with 10 mg/kg ritonavir ([1]; cabazitaxel PK model): 2.62 h⁻¹
- Ka, 25 mg/kg, First-order absorption rate constant when co-administered with 25 mg/kg ritonavir ([1]; cabazitaxel PK model): 1.22 h⁻¹
- Ka, First-order absorption rate constant ([1]; cabazitaxel PK model, Cyp3aXAV mice): 5.83 h⁻¹
- CLint, Uninhibited intrinsic clearance ([1]; cabazitaxel PK model, Cyp3aXAV mice, allometrically scaled to a 70 kg human): 106 L/h
- Q2, Inter compartment clearance [1, 4]: 27.7 L/h
- VP, Peripheral volume [1, 4]: 613 L
- IIV F [1, 5]: 22.7 CV %
- IIV Ka [1, 5]: 63.4 CV %
- VC, Central volume ([1]; population PK model, Cyp3aXAV mice, allometrically scaled to a 70 kg human): 293 L
- lower absolute testis concentration ([3]; Ces1cde−/− compared to wild-type mice, 2 h): 2.3 fold
- lower plasma AUC0-2h [3, 6]: 6.7 fold
- reduction of Cmax [3, 6]: 5.4 fold
- SIC (% of dose), small intestinal content as percentage of dose ([3]; Ces1cde−/− mice, oral 10 mg/kg cabazitaxel, 2 h): 0.16 ± 0.09 % of dose
- lower absolute testis concentration ([3]; Ces1−/− compared to wild-type mice, 2 h): 2.6 fold
- lower plasma AUC0-2h [3, 7]: 7.2 fold
- reduction of Cmax [3, 7]: 6.0 fold
- SIC (% of dose), small intestinal content as percentage of dose ([3]; Ces1−/− mice, oral 10 mg/kg cabazitaxel, 2 h): 0.10 ± 0.04 % of dose
- Kp at 2 h ([3]; brain, Ces1cde−/− mice, oral 10 mg/kg cabazitaxel, 2 h, read-out: Brain-to-plasma ratio): 0.28 ± 0.06
- Kp at 2 h ([3]; brain, Ces1−/− mice, oral 10 mg/kg cabazitaxel, 2 h, read-out: Brain-to-plasma ratio): 0.43 ± 0.06
- Kp at 2 h ([3]; brain, wild-type mice, oral 10 mg/kg cabazitaxel, 2 h, read-out: Brain-to-plasma ratio): 0.04 ± 0.003
- Kp at 2 h ([3]; liver, Ces1cde−/− mice, oral 10 mg/kg cabazitaxel, 2 h, read-out: Liver-to-plasma ratio): 13.1 ± 4.6
- Kp at 2 h ([3]; liver, Ces1−/− mice, oral 10 mg/kg cabazitaxel, 2 h, read-out: Liver-to-plasma ratio): 14.9 ± 4.49
- Kp at 2 h ([3]; liver, wild-type mice, oral 10 mg/kg cabazitaxel, 2 h, read-out: Liver-to-plasma ratio): 1.64 ± 0.59
- Cmax [3, 8]: 1080 ± 450 nM
- Tmax [3, 8]: 25 min
- AUC(0-t) [3, 8]: 1.03 ± 0.395 µM·h
- Cmax [3, 9]: 969 ± 219 nM
- Tmax [3, 9]: 32.5 min
- AUC(0-t) [3, 9]: 0.946 ± 0.22 µM·h
- Cmax [3, 10]: 5830 ± 1800 nM
- Tmax [3, 10]: 25 min
- AUC(0-t) [3, 10]: 6.86 ± 1.94 µM·h
- CLiver [3, 11]: 2035 ± 460 pmol/g
- Cbrain [3, 11]: 49.9 ± 5.96 pmol/g
- SIC (% of dose), small intestinal content as percentage of dose [3, 11]: 0.11 ± 0.06 % of dose
Structure (SMILES): CO[C@H]1C(=O)[C@]2(C)[C@@H](OC)C[C@H]3OC[C@@]3(OC(C)=O)[C@H]2[C@H](OC(=O)c2ccccc2)[C@]2(O)C[C@H](OC(=O)[C@H](O)[C@@H](NC(=O)OC(C)(C)C)c3ccccc3)C(C)=C1C2(C)C [cabazitaxel]
- previously observed difference of plasma AUC [2]: approximately 6 fold

Structure (SMILES): CC(C)c1nc(CN(C)C(=O)N[C@H](C(=O)N[C@@H](Cc2ccccc2)C[C@H](O)[C@H](Cc2ccccc2)NC(=O)OCc2cncs2)C(C)C)cs1 [ritonavir]
- Tmax (in vivo; male, FVB, mouse, in vivo, po, 25 mg/kg): 65 min
- Cbrain (in vivo; wild-type mice, oral 25 mg/kg ritonavir alone, 2 h 15 min): 123 ± 57.8 pmol/g
